According to patent US11773057B2, “Naphthalenesulfonamide compound, preparation method, and application” (CHINA PHARMACEUTICAL UNIVERSITY, priority 2019, dated 2023):
pIC50: −log10 of the molar value. Values belong to the compound of their own block, whether it stands above or below them.

Tests used:
[1] = target: T1, Keap1-Nrf2 PPI (Keap1 kelch domain protein, FITC labeled Nrf2 9 peptide) (Homo sapiens, UniProt Q14145); assay: Fluorescence polarization based Keap1-Nrf2 PPI competitive inhibition experiment (FP experiment); format: binding; details: for pIC50: FP experiment
T1 construct: 10 μL 12 nm Keap1 kelch domain protein
T1 sequence (Q14145 321-609 limits assumed): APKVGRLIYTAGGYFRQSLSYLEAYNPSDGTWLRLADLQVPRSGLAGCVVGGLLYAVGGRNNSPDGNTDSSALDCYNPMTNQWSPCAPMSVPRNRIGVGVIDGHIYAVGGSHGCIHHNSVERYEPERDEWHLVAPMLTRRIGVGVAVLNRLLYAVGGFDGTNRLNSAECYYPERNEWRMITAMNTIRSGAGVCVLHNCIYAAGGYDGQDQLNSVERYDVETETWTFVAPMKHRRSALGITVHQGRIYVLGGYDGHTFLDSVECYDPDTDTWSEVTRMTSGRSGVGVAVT
Procedure: 1. Keap1-Nrf2 PPI Competitive Inhibition Test Based on Fluorescence Polarization (FP Experiment)
The 384-well blackboard model 3676 produced by Corning is used in FP experiment, with a total volume of reaction of 40 μL. 20 μL compound, 10 μL 4 nm FITC labeled Nrf2 9 peptide, 10 μL 12 nm Keap1 kelch domain protein are added to the well in order. 20 μL 200 nM DDO-1002, 10 μL 4 nM of the FITC-labeled Nrf2 9 peptide, 10 μL 12 nM of Keap1 Ketch domain protein are used in the positive control; 20 μL HEPES buffer, 10 μL 4 nM of the FITC-labeled Nrf2 9 peptide, 10 μL, 12 nM of Keap1 Kelch domain protein are used in the negative control; 10 μL 4 nM of the FITC-labeled Nrf2 9 peptide, 30 μL of HEPES buffer are used in the blank control. After addition is complete, they are incubated for 30 min at room temperature. The detection instrument is a SpectraMax Multi-Mode Microplate Reader (Molecular Devices), the excitation light wavelength selected is 485 nm, the emission light wavelength is 545 nm, and the fluorescence intensity in the horizontal and vertical directions is detected to calculate the polarization value. The inhibition rate is calculated as: inhibition %=[…]/(Pmax−Pmin) wherein Pobs is the polarization value of the compound well, Pmax is the polarization value of the negative control well, and Pmin is the polarization value of the blank well. Data treatment is performed using GraphPad Prism, and IC50 of the compound is calculated using a concentration-inhibition rate curve. The IC50 values for each compound are as previously described.

HepG2-ARE-C8 cells = assay: ARE luciferase reporter gene experiment; format: cell-based; details: compound acts 12 h, ratio to DMSO group, FIG. 1, in words
Procedure: 2. ARE Luciferase Reporter Gene Experiment
HepG2-ARE-C8 cells in log growth phase (these cells are given by A. N. Tony Kong of Rutgers University) are digested with 0.1% pancreatin to prepare a cell suspension, the cell suspension is added to a 96-well microtiter plate at a cell concentration of 4×10^5/mL, added 100 μL per well, and after overnight culture, a DMSO group serves as a negative control, t-BHQ serves as a positive control, and a cell culture lysis reagent serves as a background value. The compound is allowed to act for 12 h, three replicate wells were provided, the growth medium is carefully pipetted from the cells to be examined, 100 μL of pre-cooled. […] 100 μL luciferase detection reagent is added to each well and read immediately. […] Typical delay time is 2 seconds, typical reading time is 10 seconds, and the last measured data is divided from the DMSO group. […]
By a fluorescence polarization based Keap1-Nrf2 PPI competitive inhibition experiment we have shown that on the target level, some compounds (compound numbers see FIG. 1) are able to efficiently compete for binding to Keap1 and thereby activating Nrf2. […] When luciferin is present in a substrate, the […], and the activation capability of a compound on Nrf2 is indirectly reflected by means of fluorescence intensity. […]

[2] = general formula III compounds, unit inferred
[3] = general formula V / VI compounds

pIC50 ([1]; general formula IV compounds): 7.10
Compound: C#CCN(c1ccc(N(CC(=O)O)S(=O)(=O)c2ccc(C(C)C)cc2)c2ccccc12)[C@@H](C)CC(=O)O [DDO-1197, (S)-3-((4-((N-(carboxymethyl)-4-isopropylphenyl)sulfonamido)naphthalen-1-yl)(prop-2-yn-1-yl)amino) butanoic acid]

pIC50 [1, 2]: 5.70
Compound: C#CCN(c1ccc(NS(=O)(=O)c2ccccc2OC)c2ccccc12)[C@@H](C)CC(=O)O [DDO-1198]

pIC50 ([1]; general formula IV compounds): 6.54
Compound: C#CCN(c1ccc(N(CC(=O)O)S(=O)(=O)c2ccccc2OC)c2ccccc12)[C@@H](C)CC(=O)O [DDO-1199]

pIC50 [1, 2]: 6.62
Compound: C#CCN(c1ccc(NS(=O)(=O)c2cccc(OC)c2)c2ccccc12)[C@@H](C)CC(=O)O [DDO-1200, (S)-3-((4-((3-methoxyphenyl)sulfonamido)naphthalen-1-yl)(prop-2-yn-1-yl)amino) butanoic acid]

pIC50 ([1]; general formula IV compounds): 6.89
Compound: C#CCN(c1ccc(N(CC(=O)O)S(=O)(=O)c2cccc(OC)c2)c2ccccc12)[C@@H](C)CC(=O)O [DDO-1201]

pIC50 [1, 2]: 6.62
Compound: C#CCN(c1ccc(NS(=O)(=O)c2ccccc2C)c2ccccc12)[C@@H](C)CC(=O)O [DDO-1202, (S)-3-((4-((2-methylphenyl)sulfonamido)naphthalen-1-yl)(prop-2-yn-1-yl)amino) butanoic acid]

pIC50 ([1]; general formula IV compounds): 6.77
Compound: C#CCN(c1ccc(N(CC(=O)O)S(=O)(=O)c2ccccc2C)c2ccccc12)[C@@H](C)CC(=O)O [DDO-1203, (S)-3-((4-((N-(Carboxymethyl)-methylphenyl)sulfonamido)naphthalen-1-yl)(prop-2-yn-1-yl)amino) butanoic acid]

pIC50 [1, 2]: 7.03
Compound: C#CCN(c1ccc(NS(=O)(=O)c2ccc(C)cc2C)c2ccccc12)[C@@H](C)CC(=O)O [DDO-1204, (S)-3-((4-((2,4-dimethylphenyl)sulfonamido)naphthalen-1-yl) (prop-2-yn-1-yl)amino) butanoic acid]

pIC50 ([1]; general formula IV compounds): 7.57
Compound: C#CCN(c1ccc(N(CC(=O)O)S(=O)(=O)c2ccc(C)cc2C)c2ccccc12)[C@@H](C)CC(=O)O [DDO-1205]

pIC50 [1, 2]: 7.39
Compound: C#CCN(c1ccc(NS(=O)(=O)c2c(C)cc(C)cc2C)c2ccccc12)[C@@H](C)CC(=O)O [DDO-1206, (S)-3-(prop-2-yn-1-yl(4-((2,4,6-trimethylphenyl)sulfonamido)naphthalen-1-yl)amino) butanoic acid]

pIC50 ([1]; general formula IV compounds): 7.82
Compound: C#CCN(c1ccc(N(CC(=O)O)S(=O)(=O)c2c(C)cc(C)cc2C)c2ccccc12)[C@@H](C)CC(=O)O [DDO-1207, (S)-3-((4-((N-(Carboxymethyl)-2,4,6-trimethylphenyl)sulfonamidyl)naphthalen-1-yl)(prop-2-yn-1-yl)amino) butanoic acid]

pIC50 ([1]; general formula IV compounds): 6.82
Compound: C#CCN(c1ccc(N(CC(=O)O)S(=O)(=O)c2c(C)c(C)cc(C)c2C)c2ccccc12)[C@@H](C)CC(=O)O [DDO-1209, (S)-3-((4-((N-(Carboxymethyl)-2,3,5,6-tetramethylphenyl)sulfonamido)naphthalen-1-yl)(prop-2-yn-1-yl)amino) butanoic acid]

pIC50 [1, 3]: 7.14
Compound: C#CCN(c1ccc(NS(=O)(=O)c2ccc(OC)c(OC)c2)c2ccccc12)[C@@H](C)CC(=O)O [DDO-1210, (S)-3-((4-((3,4-dimethoxyphenyl)sulfonamido)naphthalen-1-yl) (prop-2-yn-1-yl)amino) butanoic acid]

pIC50 [1, 3]: 7.23
Compound: C#CCN(c1ccc(N(CC(=O)O)S(=O)(=O)c2ccc(OC)c(OC)c2)c2ccccc12)[C@@H](C)CC(=O)O [DDO-1211, (S)-3-((4-((N-(Carboxymethyl)-3,4-dimethoxyphenyl)sulfonamido)naphthalen-1-yl)(prop-2-yn-1-yl)amino) butanoic acid]

pIC50 [1, 3]: 6.56
Compound: C#CCN(c1ccc(NS(=O)(=O)c2ccc(OC)c(F)c2)c2ccccc12)[C@@H](C)CC(=O)O [DDO-1212, (S)-3-((4-((3-fluoro-4-methoxyphenyl)sulfonamido)naphthalen-1-yl) (prop-2-yn-1-yl)amino) butanoic acid]

pIC50 [1, 3]: 6.81
Compound: C#CCN(c1ccc(N(CC(=O)O)S(=O)(=O)c2ccc(OC)c(F)c2)c2ccccc12)[C@@H](C)CC(=O)O [DDO-1213]

pIC50 [1, 3]: 7.12
Compound: C#CCN(c1ccc(NS(=O)(=O)c2ccc(OC)c(Cl)c2)c2ccccc12)[C@@H](C)CC(=O)O [DDO-1214]

pIC50 [1, 3]: 7.40
Compound: C#CCN(c1ccc(N(CC(=O)O)S(=O)(=O)c2ccc(OC)c(Cl)c2)c2ccccc12)[C@@H](C)CC(=O)O [DDO-1215]

pIC50 [1, 3]: 7.14
Compound: C#CCN(c1ccc(NS(=O)(=O)c2ccc(OC)c(C)c2)c2ccccc12)[C@@H](C)CC(=O)O [DDO-1216, (S)-3-((4-((4-methoxy-3-methylphenyl)sulfonamido)naphthalen-1-yl) (prop-2-yn-1-yl)amino) butanoic acid]

pIC50 [1, 3]: 7.43
Compound: C#CCN(c1ccc(N(CC(=O)O)S(=O)(=O)c2ccc(OC)c(C)c2)c2ccccc12)[C@@H](C)CC(=O)O [DDO-1217, (S)-3-((4-((N-(Carboxymethyl)-4-methoxy-3-methylphenyl)sulfonamido)naphthalen-1-yl)(prop-2-yn-1-yl)amino) butanoic acid]

pIC50 [1, 3]: 7.64
Compound: C#CCN(c1ccc(NS(=O)(=O)c2c(C)cc(OC)c(C)c2C)c2ccccc12)[C@@H](C)CC(=O)O [DDO-1218, (S)-3-((4-((4-methoxy-2,3,6-trimethylphenyl)sulfonamido)naphthalen-1-yl) (prop-2-yn-1-yl)amino) butanoic acid]

pIC50 [1, 3]: 8.15
Compound: C#CCN(c1ccc(N(CC(=O)O)S(=O)(=O)c2c(C)cc(OC)c(C)c2C)c2ccccc12)[C@@H](C)CC(=O)O [DDO-1219, (S)-3-((4-((N-(Carboxymethyl)-4-methoxy-2,3,6-trimethylphenyl)sulfonamidyl)naphthalen-1-yl)(prop-2-yn-1-yl)amino) butanoic acid]

ARE luciferase reporter gene activity (fold induction), cell activity (HepG2-ARE-C8 cells): has the optimal cell activity
pIC50 [1, 3]: 7.89
Compound: C#CCN(c1ccc(NS(=O)(=O)c2c(C)cc(OC)cc2C)c2ccccc12)[C@@H](C)CC(=O)O [DDO-1220]

ARE luciferase reporter gene activity (fold induction), cell activity (HepG2-ARE-C8 cells): does not have the optimal cell activity
pIC50 [1, 3]: 8.24
target activity in the FP assay ([1]; in words): optimal target activity
Compound: C#CCN(c1ccc(N(CC(=O)O)S(=O)(=O)c2c(C)cc(OC)cc2C)c2ccccc12)[C@@H](C)CC(=O)O [DDO-1221]

pIC50 [1, 3]: 6.80
Compound: C#CCN(c1ccc(NS(=O)(=O)c2ccc3c(c2)CCO3)c2ccccc12)[C@@H](C)CC(=O)O [DDO-1222, (S)-3-((4-((2,3-dihydrobenzofuran)-5-sulfonamido)naphthalen-1-yl) (prop-2-yn-1-yl)amino) butanoic acid]

pIC50 [1, 3]: 7.07
Compound: C#CCN(c1ccc(N(CC(=O)O)S(=O)(=O)c2ccc3c(c2)CCO3)c2ccccc12)[C@@H](C)CC(=O)O [DDO-1223, (S)-3-((4-((N-(Carboxymethyl)-2,3-dihydrobenzofuran)-5-sulfonamido)naphthalen-1-yl)(prop-2-yn-1-yl)amino) butanoic acid]
